From patent publication US7208515B2, “Diphenylmethyl compounds useful as muscarinic receptor antagonists” (Theravance, Inc., priority 2004, dated 2007)

Experiments:
[1] = target: T1, hM3 receptor (CHO cells) (Homo sapiens, UniProt P20309); test: Blockade of agonist-mediated calcium release via FLIPR assay; type: cell-based; conditions: CHO cells stably expressing the hM3 receptor, oxotremorine
T1 construct: expressed in transfected cells
From the text: C. Blockade of Agonist-Mediated Calcium Release via FLIPR Assays
Muscarinic receptor subtypes (M1, M3 and M5 receptors), which couple to Gq proteins, activate the phospholipase C (PLC) pathway upon agonist binding to the receptor. As a result, activated PLC hydrolyzes phosphatyl inositol diphosphate (PIP2) to diacylglycerol (DAG) and phosphatidyl-1,4,5-triphosphate (IP3), which in turn generates calcium release from intracellular stores, i.e., endoplasmic and sarcoplasmic reticulum. […] This fluorescence event was measured in real time by the FLIPR, which detected the change in fluorescence from a monolayer of cells cloned with human M1 and M3, and chimpanzee M5 receptors. Antagonist potency was determined by the ability of antagonists to inhibit agonist-mediated increases in intracellular calcium. […]
To determine antagonist potency, the dose-dependent stimulation of intracellular Ca^2+ release for oxotremorine was first determined so that antagonist potency can later be measured against oxotremorine stimulation at an EC90 concentration. […]
The parameters used for the FLIPR were: exposure length of 0.4 seconds, laser strength of 0.5 watts, excitation wavelength of 488 nm, and emission wavelength of 550 nm. Baseline was determined by measuring the change in fluorescence for 10 seconds prior to addition of agonist. […]

[2] = test system: ACh-induced bronchoconstriction; test: Duration of bronchoprotection in guinea pig model of acetylcholine-induced bronchoconstriction; type: in vivo; conditions: inhalation, 1.5 hours post-dose
Method: Determination of Duration of Bronchoprotection in Guinea Pig Model of Acetylcholine-Induced Bronchoconstriction
Groups of six male guinea pigs (Duncan-Hartley (HsdPoc:DH) Harlan, Madison, Wis.) weighing between 250 and 350 g were individually identified by cage cards. Throughout the study animals were allowed access to food and water ad libitum.
Test compounds were administered via inhalation over 10 minutes in a whole-body exposure dosing chamber (R&S Molds, San Carlos, Calif.). The dosing chambers were arranged so that an aerosol was simultaneously delivered to 6 individual chambers from a central manifold. Guinea pigs were exposed to an aerosol of a test compound or vehicle (WFI). […] This was measured gravimetrically by comparing pre-and post-nebulization weights of the filled nebulizer.
The bronchoprotective effects of test compounds administered via inhalation were evaluated using whole body plethysmography at 1.5, 24, 48 and 72 hours post-dose.
Forty-five minutes prior to the start of the pulmonary evaluation, each guinea pig was anesthetized with an intramuscular injection of ketamine (43.75 mg/kg), xylazine (3.50 mg/kg) and acepromazine (1.05 mg/kg). […] The depth of anesthesia was monitored and adjusted if the animal responded to pinching of its paw or if the respiration rate was greater than 100 breaths/minute. […]

T1 sequence (P20309 whole entry): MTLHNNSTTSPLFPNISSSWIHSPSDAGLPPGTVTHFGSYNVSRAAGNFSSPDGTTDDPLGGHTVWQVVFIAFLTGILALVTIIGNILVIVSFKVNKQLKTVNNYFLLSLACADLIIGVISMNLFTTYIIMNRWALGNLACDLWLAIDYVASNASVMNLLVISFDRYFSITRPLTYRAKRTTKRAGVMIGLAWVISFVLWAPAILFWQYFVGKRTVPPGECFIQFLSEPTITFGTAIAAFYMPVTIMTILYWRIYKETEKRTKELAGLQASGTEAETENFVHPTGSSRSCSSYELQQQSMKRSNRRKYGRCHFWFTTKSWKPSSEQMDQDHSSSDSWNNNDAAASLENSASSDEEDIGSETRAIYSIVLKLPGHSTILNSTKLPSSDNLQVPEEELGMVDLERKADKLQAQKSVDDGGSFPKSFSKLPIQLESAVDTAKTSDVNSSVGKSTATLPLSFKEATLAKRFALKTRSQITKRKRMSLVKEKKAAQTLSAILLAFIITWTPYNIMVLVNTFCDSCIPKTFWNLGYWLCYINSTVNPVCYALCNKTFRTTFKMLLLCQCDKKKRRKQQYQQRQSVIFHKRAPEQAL

Ki [1]: < 100 nM
SMILES: CNCC(=O)NCCCCCN1CC[C@@H](C(C(N)=O)(c2ccccc2)c2ccccc2)C1 [Example 1]
PD2(50) for ACh-induced bronchoconstriction [2]: less than 200 μg/mL
